We go through 4 compounds from US20100137230A1, “NEW PYRIDIN-2-ONE COMPOUNDS” (priority 2007, published 2010).

Each structure is given as a SMILES string.

What all share (assay type): cell-based
Assay [1] relates to panel of Gram positive and Gram negative bacteria. In words: in vitro screens against a panel of Gram positive and Gram negative bacteria. On the procedure:
(§1) All examples were tested against a panel of Gram positive and Gram negative bacteria. […] Typical MIC ranges […] are: S. aureus (MRSA) 0.06-2 (linezolid 1-2, ciprofloxacin 0.5-32) S. aureus (MSSA) 0.06-2 (linezolid 1-2, ciprofloxacin 0.125-1) E. faecalis 0.02-1 (linezolid 0.5-2, ciprofloxacin 0.5-32) E. faecium 0.02-1 (linezolid 1-2, ciprofloxacin 0.25-32) S. pneumoniae 0.02-1 (linezolid 0.125-1, ciprofloxacin 1-4) However, cleavage of saccharide modified compounds such as compounds from example 1 and 2 by esterases and glucosidases that occur in human plasma yields the corresponding antibiotically active compounds.

Assay [2] relates to S. aureus (MRSA). In words: MIC against panel of bacteria: S. aureus (MRSA). The protocol:
as §1

Assay [3] has as its system E. faecalis. The assay can be described thus: MIC against panel of bacteria: E. faecalis. The protocol: as §1
Assay [4] deals with S. pneumoniae. In words: MIC against panel of bacteria: S. pneumoniae. On the procedure:
as §1

Assay [5] relates to S. aureus (MSSA). In words: MIC against panel of bacteria: S. aureus (MSSA). On the procedure:
as §1

Assay [6] deals with E. faecium. In words: MIC against panel of bacteria: E. faecium. The protocol:
as §1

On to `CC(=O)NC[C@H]1CN(c2ccc(OCC3(OC(=O)[C@H]4O[C@@H](O)[C@H](O)[C@@H](O)[C@@H]4O)CCN(c4c(F)cn5c(=O)c(C(=O)O)cc(C6CC6)c5c4C)CC3)c(F)c2)C(=O)O1` [Example 1, 8-[4-{4-[(S)-5-(Acetylamino-methyl)-2-oxo-oxazolidin-3-yl]-2-fluoro-phenoxymethyl}-4-((2S,3S,4S,5R,6R)-3,4,5,6-tetrahydroxy-tetrahydro-pyran-2-carbonyloxy)-piperidin-1-yl]-1-cyclopropyl-7-fluoro-9-methyl-4-oxo-4H-quinolizine-3-carboxylic acid], for which the “activity in the in vitro screens” value in assay [1] was “inactive”.

With `CC(=O)NC[C@H]1CN(c2ccc(OCC3(OC(=O)[C@H](O)[C@@H](O)[C@H](O)[C@H](O)CO)CCN(c4c(F)cn5c(=O)c(C(=O)O)cc(C6CC6)c5c4C)CC3)c(F)c2)C(=O)O1` [Example 2, 8-[4-{4-[(S)-5-(Acetylamino-methyl)-2-oxo-oxazolidin-3-yl]-2-fluoro-phenoxymethyl}-4-((2R,3S,4R,5R)-2,3,4,5,6-pentahydroxy-hexanoyloxy)-piperidin-1-yl]-1-cyclopropyl-7-fluoro-9-methyl-4-oxo-4H-quinolizine-3-carboxylic acid], the “activity in the in vitro screens” value in assay [1] is “inactive”.

As to `CC(=O)NC[C@H]1CN(c2ccc(N3CCOCC3)c(F)c2)C(=O)O1` [linezolid], the Typical MIC ranges in assay [2] fell in the range of 1 to 2 µg/mL; in assay [3], 0.5 to 2 µg/mL; in assay [4], 125 to 1000 µg/mL.

Take `O=C(O)c1cn(C2CC2)c2cc(N3CCNCC3)c(F)cc2c1=O` [ciprofloxacin]: the Typical MIC ranges was 0.5 to 32 µg/mL in assay [2]; 0.125 to 1 µg/mL in assay [5]; 0.5 to 32 µg/mL in assay [3]; 0.25 to 32 µg/mL in assay [6]; 1 to 4 µg/mL in assay [4].
